Data published in paper PMC5814585, “Modulators of actin-myosin dissociation: basis for muscle type functional differences during fatigue” (American Journal of Physiology - Cell Physiology, 2017).

What was measured:
[1] = tested on: actin.PsoS1 (rabbit psoas myosin S1 bound to pyrene-actin); experiment: ATP-induced dissociation of pyr.actin.S1, stopped flow, pyrene fluorescence (fast, psoas); format: biochemical; conditions: for kobs of ATP-induced dissociation: 25 µM ATP; for activation energy (Ea) of K1k+2: Pso
Description: (§1) Myosin was prepared from the rabbit psoas (for fast MyHC-II) and the bovine masseter muscle (for slow MyHC-I) according to Margossian and Lowey ([41]), and was subsequently digested to subfragment 1 (S1) with chymotrypsin as described by Weeds and Taylor ([57]) which removes the regulatory light chain region.
(§2) Actin was prepared from rabbit muscle as described by Spudich & Watt ([52]) and labeled with pyrene iodoacetamide to give pyrene-labeled actin as described by Criddle et al. ([15]). Protein stocks of S1 and of pyrene-labeled actin were stored at 4°C and were used for up to 2 wk. In the text herein, reference to actin implies pyrene-labeled actin.
(§3) Stopped-flow experiments were performed essentially as described previously ([4]) using a HiTech Scientific SF-61DX2 stopped-flow system; 4–5 transients were acquired for each ATP transient (Kinetic Studio suite). The dead time of the equipment was 0.002 s. A wide temperature range (5–45°C) for measurements was available because of a new adaptation of the standard stopped-flow machine [see Ref. [56]). Briefly, the samples were held at room temperature (20°C) and then passed through a heat exchanger, at the temperature required for the measurement, just before entering the mixing chamber/observation chamber of the stopped flow. The samples were only exposed to the temperature of the measurement for a few seconds, thus allowing measurements of proteins under conditions where they are not usually stable for long.
The ATP-induced dissociation rate of actin.S1 was measured in the stopped flow by mixing a fixed concentration of pyr.actin.S1 complex (end concentration 0.25 µM) with excess ATP and monitoring fluorescence transients from the pyrene-labeled actin [excitation at 365 nm, emission through a KV389 nm cutoff filter (Schott, Mainz, Germany)]. Details of the kinetic analysis are given under Data Fitting and Interpretation Approach.
(§4) The averaged transients were fitted with a single (Eqn 1) or, if needed, a double exponential equation (Eqn 2):(1)) Ft=ΔF·e^(^−kobs·t)+F∞ or(2)) Ft=ΔF(1)·e^(^−kobs(1)·t)+ΔF(2)·e^(^−kobs(2)·t)+F∞ where Ft is the observed fluorescence at time t, F∞ is the fluorescence at the end of the transient (t = ∞) and ΔF is the total change of fluorescence observed. […] A plot of [ATP] vs. kobs was used to derive the values of K1 and k+2 (using Origin software version 6.0), as defined in Fig. 1 and Eqn 3.
(§5) The values of –Ea/R or or ΔH°/R were derived from the slopes.

[2] = molecular target: T1, actin.MassS1 (bovine masseter myosin S1 bound to pyrene-actin) (Bos taurus, UniProt Q9BE39); experiment: ATP-induced dissociation of pyr.actin.S1, stopped flow, pyrene fluorescence (slow, masseter); format: biochemical; set-up: reduction of amplitude of the dissociation reaction in the presence of phosphate / increase of activation energy by phosphate / activation energy (Ea) of K1k+2: dose or concentration left out as unconfirmed; conditions: for kobs of ATP-induced dissociation: 25 µM ATP; for activation energy (Ea) of K1k+2: Mass
T1 construct: from tissue; host or cells: bovine masseter muscle (myosin); rabbit muscle (actin)
Description: as §1, §2, §3
The ATP-induced dissociation rate of actin.S1 was measured in the stopped flow by mixing a fixed concentration of pyr.actin.S1 complex ([…]) with excess ATP and monitoring fluorescence transients from the pyrene-labeled actin [excitation at 365 nm, emission through a KV389 nm cutoff filter (Schott, Mainz, Germany)]. Details of the kinetic analysis are given under Data Fitting and Interpretation Approach.
as §4, §5

actin.MassS1 = molecular target: T2, actin.MassS1 (Bos taurus, UniProt Q9BE39); experiment: ADP release rate constant (k-AD), ADP displacement by excess ATP; format: biochemical, bovine; set-up: effect of Pi on kobs of ADP release / increase in kobs of ADP release in the presence of phosphate / activation energy (Ea) of k−AD (ADP release): dose or concentration left out as unconfirmed; conditions: […] mM Pi
T2 construct: from tissue; host or cells: bovine masseter muscle (myosin); rabbit muscle (actin)
Description: Two types of myosins were studied which are known to differ in their dissociation constant for nucleotides ([5], [51]). The rate constant for the release of ADP (k−ADP) is relatively slow for masseter S1 and can easily be measured in an ADP displacement experiment. This step is very fast for a fast muscle isoform and too fast to measure by current equipment. Briefly, actin.^MassS1 saturated with 75 µM of ADP (A.M.D complex) was mixed with a large excess of ATP (8 mM) in the stopped flow. Then the kobs values, fitted to a single exponential equation (Eqn 1) defined the rate constant by which ADP is released by the ternary A.M.D complex (k−AD).
The temperature dependence of the above studied biochemical steps K1k+2, KADP, KPi, and KADP+Pi data were plotted as the natural logarithm of the measured parameter against the reciprocal of temperature in degrees Kelvin (1/T °K) and fitted with linear regression using the Arrhenius (rate constants) or Van’t Hoff (equilibrium constants) equations(7)) lnK1k+2=ln(A)−Ea/RT (8)) lnKeq=ΔS°/R−ΔH°/RT where Ea stands for activation energy, R is the gas constant, and A is a preexponential factor. The values of –Ea/R or or ΔH°/R were derived from the slopes.

Compound: O=P(O)(O)O [Pi, inorganic phosphate]
- reduction of amplitude of the dissociation reaction in the presence of phosphate ([1]; PsoS1, 30 mM Pi): 50%
- increase of activation energy by phosphate ([1]; PsoS1, both pH values, 30 mM Pi vs no Pi): about 10 kJ/mol
- reduction of amplitude of the dissociation reaction in the presence of phosphate ([2]; MassS1, […] mM Pi): 50%
- increase of activation energy by phosphate ([2]; masseter, […] mM Pi vs no Pi): about 5 kJ/mol
- increase in kobs of ADP release in the presence of phosphate (actin.MassS1; pH 6.2): 30–50%
- effect of Pi on kobs of ADP release (actin.MassS1; pH 7.0): little effect

Compound: Nc1ncnc2c1ncn2[C@@H]1O[C@H](COP(=O)(O)OP(=O)(O)OP(=O)(O)O)[C@@H](O)[C@H]1O [ATP]
- kobs of ATP-induced dissociation ([1]; 0.5 µM pyr-act.PsoS1, pH 7.0, 5°C): 84.8 s⁻¹
- kobs of ATP-induced dissociation ([1]; 0.5 µM pyr-act.PsoS1, pH 7.0, 25°C): 208.5 s⁻¹
- kobs of ATP-induced dissociation ([1]; 0.5 µM pyr-act.PsoS1, pH 7.0, 35°C): 296.9 s⁻¹
- kobs of ATP-induced dissociation ([1]; 0.5 µM pyr-act.PsoS1, pH 7.0, 43°C): 374.4 s⁻¹
- kobs of ATP-induced dissociation ([1]; 0.5 µM pyr-act.PsoS1, pH 7.0, […]°C): 136.2 s⁻¹
- kobs of ATP-induced dissociation ([1]; zero ADP, 20°C, pH 7.0): 87.7 s⁻¹
- activation energy (Ea) of K1k+2 ([1]; pH 6.2, + 30 mM Pi): 9.37 ± 0.382 kcal/mol
- activation energy (Ea) of K1k+2 ([1]; pH 6.2, no Pi, 5–43°C): 7 ± 0.19 kcal/mol
- activation energy (Ea) of K1k+2 ([1]; pH 7.0, + 30 mM Pi): 9.01 ± 0.287 kcal/mol
- activation energy (Ea) of K1k+2 ([1]; pH 7.0, no Pi, 5–43°C): 6.76 ± 0.19 kcal/mol
- activation energy of the dissociation rate constant ([1]; psoas, in the presence of phosphate, irrespective of pH): 9.08 ± 0.24 kcal/mol
- kobs of ATP-induced dissociation ([2]; 0.5 µM pyrAct.MassS1, pH 7.0, 5°C): 26.7 s⁻¹
- kobs of ATP-induced dissociation ([2]; 0.5 µM pyrAct.MassS1, pH 7.0, 25°C): 46.7 s⁻¹
- kobs of ATP-induced dissociation ([2]; 0.5 µM pyrAct.MassS1, pH 7.0, 35°C): 64.9 s⁻¹
- kobs of ATP-induced dissociation ([2]; 0.5 µM pyrAct.MassS1, pH 7.0, […]°C): 36.1 s⁻¹
- kobs of ATP-induced dissociation ([2]; zero ADP, 20°C, pH 7.0): 37.5 s⁻¹
- activation energy (Ea) of K1k+2 ([2]; pH 6.2, + […] mM Pi): 7.34 ± 0.17 kcal/mol
- activation energy (Ea) of K1k+2 ([2]; pH 6.2, no Pi, 5–43°C): 5.69 ± 0.263 kcal/mol
- activation energy (Ea) of K1k+2 ([2]; pH 7.0, + […] mM Pi): 7.15 ± 0.263 kcal/mol
- activation energy (Ea) of K1k+2 ([2]; pH 7.0, no Pi, 5–43°C): 6.14 ± 0.335 kcal/mol
- activation energy of the dissociation rate constant ([2]; masseter, in the presence of phosphate, irrespective of pH): 7.17 ± 0.24 kcal/mol
